Toxic doses and inconclusive results are not listed. Rule for the calls: active = survival T/C of 150% or more; inactive = T/C below 125% in these data.
Test system: CD2F1 mice, L1210 leukemia ip, survival T/C
Assay: NCI In Vivo Anticancer Drug Screen. Data for tumor model L1210 Leukemia (intraperitoneal) in CD2F1 (CDF1) mice
Conditions: higher = longer survival
How it was run: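 Compound-dosed mice with transplantable tumor versus matched vehicle controls; endpoint ratio T/C reported.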

[1] = endpoint: mean survival time, dose: 25.0 mg/kg/injection, schedule: Q01DX009 (ip), vehicle: saline
[2] = endpoint: mean survival time, dose: 50.0 mg/kg/injection, schedule: Q01DX009 (ip), vehicle: saline
[3] = endpoint: mean survival time, dose: 100.0 mg/kg/injection, schedule: Q01DX009 (ip), vehicle: saline
[4] = endpoint: mean survival time, dose: 100.0 mg/kg/injection, schedule: Q04DX003 (ip), vehicle: saline with Tween-80
[5] = endpoint: mean survival time, dose: 200.0 mg/kg/injection, schedule: Q04DX003 (ip), vehicle: saline with Tween-80
[6] = endpoint: mean survival time, dose: 50.0 mg/kg/injection, schedule: Q01DX009 (ip), vehicle: Klucel (hydroxypropylcellulose) (HPC)
[7] = endpoint: mean survival time, dose: 100.0 mg/kg/injection, schedule: Q01DX009 (ip), vehicle: Klucel (hydroxypropylcellulose) (HPC)
[8] = endpoint: mean survival time, dose: 100.0 mg/kg/injection, schedule: Q04DX003 (ip), vehicle: Klucel (hydroxypropylcellulose) (HPC)
[9] = endpoint: mean survival time, dose: 200.0 mg/kg/injection, schedule: Q04DX003 (ip), vehicle: Klucel (hydroxypropylcellulose) (HPC)
[10] = endpoint: mean survival time, dose: 400.0 mg/kg/injection, schedule: Q04DX003 (ip), vehicle: Klucel (hydroxypropylcellulose) (HPC)
[11] = endpoint: mean survival time, dose: 100.0 mg/kg/injection, schedule: Q01DX001 (ip), vehicle: saline
[12] = endpoint: mean survival time, dose: 200.0 mg/kg/injection, schedule: Q01DX001 (ip), vehicle: saline
[13] = endpoint: mean survival time, dose: 25.0 mg/kg/injection, schedule: Q01DX009 (ip), vehicle: Klucel (hydroxypropylcellulose) (HPC)
[14] = endpoint: mean survival time, dose: 400.0 mg/kg/injection, schedule: Q04DX003 (ip), vehicle: saline with Tween-80
[15] = endpoint: mean survival time, dose: 50.0 mg/kg/injection, schedule: Q01DX009 (ip), vehicle: saline sonified
[16] = endpoint: mean survival time, dose: 12.5 mg/kg/injection, schedule: Q01DX009 (ip), vehicle: saline with Tween-80
[17] = endpoint: mean survival time, dose: 100.0 mg/kg/injection, schedule: Q01DX009 (ip), vehicle: saline with Tween-80
[18] = endpoint: mean survival time, dose: 100.0 mg/kg/injection, schedule: Q04DX003 (ip), vehicle: saline
[19] = endpoint: mean survival time, dose: 200.0 mg/kg/injection, schedule: Q01DX009 (ip), vehicle: saline
[20] = endpoint: mean survival time, dose: 200.0 mg/kg/injection, schedule: Q04DX003 (ip), vehicle: saline
[21] = endpoint: mean survival time, dose: 400.0 mg/kg/injection, schedule: Q04DX003 (ip), vehicle: saline
[22] = endpoint: mean survival time, dose: 200.0 mg/kg/injection, schedule: Q01DX009 (ip), vehicle: saline with Tween-80
[23] = endpoint: mean survival time, dose: 50.0 mg/kg/injection, schedule: Q01DX009 (ip), vehicle: saline with Tween-80

Measured: T/C

CN(C)C(=O)c1cc[n+](Cc2ccc(Cl)c(Cl)c2)cc1
inactive: [1] 98 % of control | [2] 121 % of control | [3] 89 % of control

CC(C)C(NC(=O)OC(C)(C)C)C(=O)ON1C(=O)CCC1=O (stereo not drawn)
inactive: [4] 104 % of control | [5] 100 % of control

COc1ccc(NC(=O)Nc2c(C)n(C)n(-c3ccccc3)c2=O)c(Cl)c1
inactive: [6] 95 % of control | [7] 95 % of control | [8] 104 % of control | endpoint: mean survival time, dose: 200.0 mg/kg/injection, schedule: Q01DX009 (ip), vehicle: Klucel (hydroxypropylcellulose) (HPC) 95 % of control | [9] 104 % of control | [10] 104 % of control

CC(C)(SC(c1ccccc1)(c1ccccc1)c1ccccc1)C(N)C(=O)O (stereo not drawn)
inactive: [1] 106 % of control | [2] 103 % of control

O=C(O)c1cc(N2CCCCC2)ccn1
inactive: [11] 94 % of control | [12] 100 % of control

CC1(c2ccc3ccccc3c2)OC(=O)c2ccccc21 (stereo not drawn)
inactive: endpoint: median survival time, dose: 12.5 mg/kg/injection, schedule: Q04DX003 (ip), vehicle: saline with Tween-80 111 % of control | endpoint: median survival time, dose: 25.0 mg/kg/injection, schedule: Q04DX003 (ip), vehicle: saline with Tween-80 100 % of control | endpoint: median survival time, dose: 50.0 mg/kg/injection, schedule: Q04DX003 (ip), vehicle: saline with Tween-80 111 % of control | endpoint: median survival time, dose: 100.0 mg/kg/injection, schedule: Q04DX003 (ip), vehicle: saline with Tween-80 88 % of control

CC(=O)Oc1ccc2c3c(ccc2c1)CCCC3
inactive: [13] 116 % of control | [6] 93 % of control | [7] 104 % of control

CC(=O)c1cc(-c2ccc(C)cc2)nc2c(C)cc(C)cc12
inactive: [4] 92 % of control | [5] 86 % of control | [14] 92 % of control

CC(=O)CC(=O)OCOC(=O)CC(C)=O
inactive: [8] 102 % of control | [9] 106 % of control | [10] 106 % of control

O=c1[nH]c2ccc(Br)cc2c2ccccc12
inactive: [11] 90 % of control | [12] 94 % of control | endpoint: mean survival time, dose: 400.0 mg/kg/injection, schedule: Q01DX001 (ip), vehicle: saline 100 % of control

C=CCOc1ccncc1
inactive: endpoint: mean survival time, dose: 12.5 mg/kg/injection, schedule: Q01DX009 (ip), vehicle: saline sonified 101 % of control | endpoint: mean survival time, dose: 12.5 mg/kg/injection, schedule: Q04DX003 (ip), vehicle: saline with Tween-80 93 % of control | endpoint: mean survival time, dose: 25.0 mg/kg/injection, schedule: Q01DX009 (ip), vehicle: saline sonified 100 % of control | endpoint: mean survival time, dose: 25.0 mg/kg/injection, schedule: Q04DX003 (ip), vehicle: saline with Tween-80 93 % of control | [15] 101 % of control | endpoint: mean survival time, dose: 50.0 mg/kg/injection, schedule: Q04DX003 (ip), vehicle: saline with Tween-80 93 % of control

NC(=O)c1c(Cl)n(C2OC(CO)C(O)C2O)c2ncnc(N)c12 (stereo not drawn)
inactive: endpoint: mean survival time, dose: 1.0 mg/kg/injection, schedule: Q01DX005 (ip), vehicle: distilled water + Tween-80 103 % of control | endpoint: mean survival time, dose: 2.0 mg/kg/injection, schedule: Q01DX005 (ip), vehicle: distilled water + Tween-80 101 % of control | endpoint: mean survival time, dose: 4.0 mg/kg/injection, schedule: Q01DX005 (ip), vehicle: distilled water + Tween-80 106 % of control | endpoint: mean survival time, dose: 8.0 mg/kg/injection, schedule: Q01DX005 (ip), vehicle: distilled water + Tween-80 103 % of control | endpoint: mean survival time, dose: 16.0 mg/kg/injection, schedule: Q01DX005 (ip), vehicle: distilled water + Tween-80 114 % of control | endpoint: mean survival time, dose: 32.0 mg/kg/injection, schedule: Q01DX005 (ip), vehicle: distilled water + Tween-80 109 % of control

C=C1C(=O)OC2CC1C(OC(=O)/C=C/c1ccccc1)C/C(C)=C/CC/C(C)=C/CCC2(C)O (stereo not drawn)
inactive: endpoint: mean survival time, dose: 12.5 mg/kg/injection, schedule: Q01DX009 (ip), vehicle: Klucel (hydroxypropylcellulose) (HPC) 96 % of control | [13] 98 % of control | [6] 98 % of control | [7] 102 % of control

CC1CNC(Cl)O1 (stereo not drawn)
inactive: [4] 87 % of control | [5] 105 % of control

O/N=C(/CC(O)(c1ccccc1)c1ccccc1)c1ccccc1
inactive: endpoint: mean survival time, dose: 75.0 mg/kg/injection, schedule: Q01DX001 (ip), vehicle: saline 98 % of control | endpoint: mean survival time, dose: 150.0 mg/kg/injection, schedule: Q01DX001 (ip), vehicle: saline 103 % of control | endpoint: mean survival time, dose: 300.0 mg/kg/injection, schedule: Q01DX001 (ip), vehicle: saline 95 % of control

Cc1cc(N(CCOS(C)(=O)=O)CCOS(C)(=O)=O)ccc1C=Nc1ccc(C(=O)O)c(O)c1
inactive: endpoint: mean survival time, dose: 4.0 mg/kg/injection, schedule: Q01DX009 (ip), vehicle: saline with Tween-80 118 % of control | endpoint: mean survival time, dose: 6.0 mg/kg/injection, schedule: Q01DX009 (ip), vehicle: saline with Tween-80 111 % of control | [16] 123 % of control

N/C(=N/N=C/c1ccco1)N[N+](=O)[O-]
inactive: endpoint: mean survival time, dose: 50.0 mg/kg/injection, schedule: Q01DX001 (ip), vehicle: Klucel (hydroxypropylcellulose) (HPC) 97 % of control | endpoint: mean survival time, dose: 100.0 mg/kg/injection, schedule: Q01DX001 (ip), vehicle: Klucel (hydroxypropylcellulose) (HPC) 94 % of control | endpoint: mean survival time, dose: 200.0 mg/kg/injection, schedule: Q01DX001 (ip), vehicle: Klucel (hydroxypropylcellulose) (HPC) 97 % of control

N=C(N)N(CCS)CC(=O)O
inactive: endpoint: mean survival time, dose: 200.0 mg/kg/injection, schedule: Q01DX001 (ip), vehicle: saline with Tween-80 87 % of control | endpoint: mean survival time, dose: 400.0 mg/kg/injection, schedule: Q01DX001 (ip), vehicle: saline with Tween-80 90 % of control

COC(=O)N/N=C/Cc1ccccc1
inactive: [17] 93 % of control

O=C(O)C1OC12CCCCC2 (stereo not drawn)
inactive: [3] 96 % of control | [18] 100 % of control | [19] 101 % of control | [20] 101 % of control | endpoint: mean survival time, dose: 400.0 mg/kg/injection, schedule: Q01DX009 (ip), vehicle: saline 100 % of control | [21] 103 % of control

CC1=CC(=O)OC1CC(=O)O (stereo not drawn)
inactive: [2] 97 % of control | [3] 97 % of control | [19] 103 % of control

Cc1ccc(OCC(=O)C2CSc3ccc(Cl)cc32)cc1 (stereo not drawn)
inactive: [4] 97 % of control | [5] 94 % of control | [14] 111 % of control

CN(C)c1nc(Cl)cc2c1ncn2C1OC(CO)C(O)C1O (stereo not drawn)
inactive: endpoint: mean survival time, dose: 100.0 mg/kg/injection, schedule: Q01DX005 (ip), vehicle: saline 117 % of control

O=C(N/N=C/c1ccccc1O)c1ccccc1O
inactive: [17] 93 % of control | [22] 95 % of control | endpoint: mean survival time, dose: 400.0 mg/kg/injection, schedule: Q01DX009 (ip), vehicle: saline with Tween-80 93 % of control

O=S(=O)(O)O.[Fe]
inactive: [15] 86 % of control | [4] 96 % of control | [5] 88 % of control

CC1(C)N=C(N)N=C(N)N1c1ccc(CCCCc2ccc(Cl)cc2Cl)cc1
inactive: endpoint: mean survival time, dose: 6.25 mg/kg/injection, schedule: Q01DX009 (ip), vehicle: saline with Tween-80 98 % of control | endpoint: mean survival time, dose: 6.25 mg/kg/injection, schedule: Q04DX003 (ip), vehicle: saline sonified 96 % of control | [16] 102 % of control | endpoint: mean survival time, dose: 12.5 mg/kg/injection, schedule: Q04DX003 (ip), vehicle: saline sonified 98 % of control | endpoint: mean survival time, dose: 25.0 mg/kg/injection, schedule: Q04DX003 (ip), vehicle: saline sonified 100 % of control

COCCCN=C(N)N
inactive: [2] 102 % of control | [3] 105 % of control | [19] 96 % of control

CCCCCCCCC(=O)CCCC
inactive: [18] 102 % of control | [20] 100 % of control | [21] 98 % of control

COc1ccc(OC)c2c1CCC(O)(C#N)C2 (stereo not drawn)
inactive: endpoint: mean survival time, dose: 12.5 mg/kg/injection, schedule: Q01DX009 (ip), vehicle: water 98 % of control | endpoint: mean survival time, dose: 25.0 mg/kg/injection, schedule: Q01DX009 (ip), vehicle: water 89 % of control

CC(C)(CN(Cc1ccccc1)Cc1ccccc1)[N+](=O)[O-]
inactive: [23] 98 % of control | [17] 98 % of control | [22] 90 % of control

COc1cc(CC2c3cc(OC)c(OC)cc3CCN2C)c(Oc2cc3c(cc2OC)-c2c(OC)c(OC)c(OC)c4c2C(C3)N(C)CC4)cc1OC (stereo not drawn)
inactive: [23] 95 % of control | [17] 86 % of control
